Experimental data reported in PMC6270263, “Factors Influencing the Antifolate Activity of Synthetic Tea-Derived Catechins” (Molecules, 2013).

Tested on: SK-MEL-28 melanoma cells
Test: Apoptosis assay (cell death detection ELISA) with or without site markers
Type: cell-based, human
Details: SK-MEL-28, 10 µM, alone
Excerpt: Serum is commonly used as a supplement in cell culture media. It supports cell growth and product formation by providing a broad spectrum of macromolecules, attachment factors, nutrients, and hormone and growth factors. The most commonly used animal serum supplement is foetal bovine serum, FBS (alternatively called foetal calf serum—FCS). Because BSA is a major component of FBS, the in vitro activity of catechins on tumour cells might be affected by their interaction with BSA. The effect of albumin binding on the biological activity of polyphenols is unclear. Does the bound ligand have some biological activity or does the polyphenol have to be in the free form to be active? To answer this question and to determine whether BSA-catechin interactions increase or decrease catechin anti-tumour activity, the proapoptotic activity of TMCG on SK-MEL-28 melanoma cells was probed in the presence of warfarin or ibuprofen [Figure 5(b)]. […] Because the binding of catechins to BSA seems to control drug availability, the lower affinity of TMCG and TMECG for serum albumins, with respect to natural tea catechins, might contribute to the high in vivo anti-tumour activity of these methylated synthetic catechins. […]
The human melanoma cell line SK-MEL-28 was obtained from American Type Culture Collection (ATCC, Manassas, VA, USA) and was maintained in Eagles’s Minimum Essential Medium (EMEM) supplemented with 10% (v/v) FBS and antibiotics at 37 °C in a humidified atmosphere containing 7.5% CO2. Cell viability was evaluated using the MTT cell proliferation assay. Cells were evaluated for apoptosis using a cell death detection ELISA (Cell Death Detection ELISAPLUS, Roche Diagnostics, Barcelona, Spain). […] The amount of nucleosomes is photometrically quantified at 405 nm by the peroxidase activity retained in the immunocomplexes. Apoptosis was defined as the specific enrichment of mono- and oligonucleosomes in the cytoplasm and was calculated by dividing the absorbance of treated samples with the absorbance of untreated samples after correcting for the number of cells. […]

Structure (SMILES): CC(C)Cc1ccc(C(C)C(=O)O)cc1 (centres unmarked) [ibuprofen, reference compound]
- Induction of apoptosis, compound alone: did not induce apoptosis

Structure (SMILES): CC(=O)CC(c1ccccc1)c1c(O)c2ccccc2oc1=O (centres unmarked) [warfarin, reference compound]
- Induction of apoptosis, compound alone: did not induce apoptosis
